Laboratory results taken from PubChem BioAssay (NCI).
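Grown in 96-well plates, cells were treated for 48 hours with each compound at five concentrations. Insufficient inhibition: endpoint recorded as highest concentration tested. TGI marks complete inhibition of growth.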

Tests used:
Assay in all cases: growth of human tumour cells (NCI), 48 h
SW-620 colon = test system: SW-620 colon
HCC-2998 colon = test system: HCC-2998 colon
OVCAR-5 ovarian = test system: OVCAR-5 ovarian
KM12 colon = test system: KM12 colon
786-0 renal = test system: 786-0 renal
KM20L2 colon = test system: KM20L2 colon
HOP-92 NSCLC = test system: HOP-92 NSCLC
MOLT-4 leukemia = test system: MOLT-4 leukemia
RXF 393 renal = test system: RXF 393 renal
MALME-3M melanoma = test system: MALME-3M melanoma
A549 NSCLC = test system: A549 NSCLC
CAKI-1 renal = test system: CAKI-1 renal
CCRF-CEM leukemia = test system: CCRF-CEM leukemia
SN12C renal = test system: SN12C renal
SNB-75 CNS = test system: SNB-75 CNS
IGROV1 ovarian = test system: IGROV1 ovarian
ACHN renal = test system: ACHN renal
NCI-H522 lung = test system: NCI-H522 lung
SNB-19 CNS = test system: SNB-19 CNS
SK-MEL-5 melanoma = test system: SK-MEL-5 melanoma
K-562 leukemia = test system: K-562 leukemia
UACC-62 melanoma = test system: UACC-62 melanoma
UACC-257 melanoma = test system: UACC-257 melanoma
SF-295 CNS = test system: SF-295 CNS
DMS 114 small cell lung = test system: DMS 114 small cell lung
HCT-116 colon = test system: HCT-116 colon
EKVX NSCLC = test system: EKVX NSCLC
LXFL 529 NSCLC = test system: LXFL 529 NSCLC
RPMI-8226 leukemia = test system: RPMI-8226 leukemia
XF 498 CNS = test system: XF 498 CNS
TK-10 renal = test system: TK-10 renal
HOP-62 NSCLC = test system: HOP-62 NSCLC
NCI-H23 lung = test system: NCI-H23 lung
M19-MEL melanoma = test system: M19-MEL melanoma
A498 renal = test system: A498 renal
NCI-H460 lung = test system: NCI-H460 lung
HT29 colon = test system: HT29 colon
SR leukemia = test system: SR leukemia
UO-31 renal = test system: UO-31 renal
DMS 273 small cell lung = test system: DMS 273 small cell lung
M14 melanoma = test system: M14 melanoma
OVCAR-8 ovarian = test system: OVCAR-8 ovarian
U251 CNS = test system: U251 CNS
SK-MEL-2 melanoma = test system: SK-MEL-2 melanoma
SF-268 CNS = test system: SF-268 CNS
DLD-1 colon = test system: DLD-1 colon
HOP-18 NSCLC = test system: HOP-18 NSCLC
SK-MEL-28 melanoma = test system: SK-MEL-28 melanoma
SK-OV-3 ovarian = test system: SK-OV-3 ovarian
OVCAR-3 ovarian = test system: OVCAR-3 ovarian
OVCAR-4 ovarian = test system: OVCAR-4 ovarian
COLO 205 colon = test system: COLO 205 colon
HCT-15 colon = test system: HCT-15 colon
LOX IMVI melanoma = test system: LOX IMVI melanoma
HL-60(TB) leukemia = test system: HL-60(TB) leukemia

Measured: TGI

CCOC(=O)C(=O)/C=C(\C)Nc1c(NC2OCC(OC(C)=O)C(OC(C)=O)C2OC(C)=O)nc(SC)[nH]c1=O (stereo not drawn)
> 100 µM: SW-620 colon | HCC-2998 colon | OVCAR-5 ovarian | KM12 colon | 786-0 renal | KM20L2 colon | HOP-92 NSCLC | MOLT-4 leukemia | RXF 393 renal | MALME-3M melanoma | A549 NSCLC | CAKI-1 renal | CCRF-CEM leukemia | SN12C renal | SNB-75 CNS | IGROV1 ovarian | ACHN renal | NCI-H522 lung | SNB-19 CNS | SK-MEL-5 melanoma | K-562 leukemia | UACC-62 melanoma | UACC-257 melanoma | SF-295 CNS | DMS 114 small cell lung | HCT-116 colon | EKVX NSCLC | LXFL 529 NSCLC | RPMI-8226 leukemia | XF 498 CNS | TK-10 renal | HOP-62 NSCLC | NCI-H23 lung | M19-MEL melanoma | A498 renal | NCI-H460 lung | HT29 colon | SR leukemia | UO-31 renal | DMS 273 small cell lung | M14 melanoma | OVCAR-8 ovarian | U251 CNS | SK-MEL-2 melanoma | SF-268 CNS | DLD-1 colon | HOP-18 NSCLC | SK-MEL-28 melanoma | SK-OV-3 ovarian | OVCAR-3 ovarian | OVCAR-4 ovarian | COLO 205 colon | HCT-15 colon | LOX IMVI melanoma

CCOC(=O)N1C=NC23C(c4ccccc4)C(c4ccccc4)C12C(=O)N(C)C(=O)N3C (stereo not drawn)
> 100 µM: SW-620 colon | HCC-2998 colon | OVCAR-5 ovarian | KM12 colon | 786-0 renal | KM20L2 colon | HOP-92 NSCLC | MOLT-4 leukemia | RXF 393 renal | MALME-3M melanoma | A549 NSCLC | CAKI-1 renal | CCRF-CEM leukemia | SN12C renal | SNB-75 CNS | IGROV1 ovarian | ACHN renal | NCI-H522 lung | SNB-19 CNS | SK-MEL-5 melanoma | K-562 leukemia | UACC-62 melanoma | UACC-257 melanoma | SF-295 CNS | HCT-116 colon | EKVX NSCLC | LXFL 529 NSCLC | RPMI-8226 leukemia | XF 498 CNS | TK-10 renal | HOP-62 NSCLC | NCI-H23 lung | M19-MEL melanoma | A498 renal | NCI-H460 lung | HT29 colon | SR leukemia | UO-31 renal | DMS 273 small cell lung | M14 melanoma | OVCAR-8 ovarian | U251 CNS | SK-MEL-2 melanoma | HL-60(TB) leukemia | SF-268 CNS | DLD-1 colon | HOP-18 NSCLC | SK-MEL-28 melanoma | SK-OV-3 ovarian | OVCAR-3 ovarian | OVCAR-4 ovarian | COLO 205 colon | HCT-15 colon | LOX IMVI melanoma
